Measured values from US20060182685A1, “Hollow fiber technique for in vivo study of cell populations” (priority 2004, published 2006).
Like-named read-outs stand apart in the source and are kept apart here. Marks after values point to notes of the source that are not given here.

How the values were obtained:
[1] = test system: hollow fiber-encapsulated M. tuberculosis H37Rv-lux
[2] = cited from earlier work
[3] = Serum antibiotic concentrations in mice on medicated diet; conditions: for Cmean: serum; for AUC: SKH1, mouse, in vivo

Row | SMILES | activity against bacilli in the hollow fiber model in vivo [1] | AUC ([2]; Isoniazid, Humans (5 mg/kg), rapid acetylators) | AUC ([2]; human, in vivo, 5 mg/kg) | Cmean ([3]; Isoniazid, SKH1 mice (0.02% diet)) | AUC ([3]; 0.02 % of diet) | kill of hollow fiber-encapsulated bacilli ([1]; in vivo) | AUC ([2]; human, in vivo, 10 mg/kg) | Cmax ([2]; human, in vivo, 10 mg/kg) | Cmean ([3]; Rifampin, SKH1 mice (0.05% diet)) | AUC ([3]; 0.05 % of diet)
1 | NNC(=O)c1ccncc1 [Isoniazid, isoniazid] | somewhat effective | 19.9 ± 6.1^a mg h/L | 48.2 ± 1.5^b mg h/L | 0.77 ± 0.21 mg/L | 18500 ± 5000 ng·h/mL | – | – | – | – | –
2 | CO[C@H]1/C=C/O[C@@]2(C)Oc3c(C)c(O)c4c(O)c(c(/C=N/N5CCN(C)CC5)c(O)c4c3C2=O)NC(=O)/C(C)=C\C=C\[C@H](C)[C@H](O)[C@@H](C)[C@@H](O)[C@@H](C)[C@H](OC(C)=O)[C@@H]1C [Rifampin, rifampin] | magnitude of its effect greater than that of isoniazid | – | – | – | – | 3 log | 117.93 mg·h/L | 14910 ng/mL | 3.09 ± 0.41 mg/L | 74200 ± 9800 ng·h/mL
